# How the values were obtained:
# [1] = test system: TRPC4–C1; assay: [Ca2+]i recordings (Fura-2), concatemeric TRPC4–C1 in HEK T-REx cells; format: cell-based; settings: activator EA (30 nM)
# Experimental: Based on the findings described above, we wondered whether AC1903—which is typically used as a TRPC5 inhibitor at concentrations of 30–100 μM in cellular assays ([29], [56])—might have limited selectivity for TRPC5 channels and whether its effect on intracellular G418 levels and PTC readthrough might be the consequence of inhibition of other or multiple targets. All well-characterized TRPC channel inhibitors reported to date modulate multiple TRP(C) channels ([34], [35], [36]). […] Because limited data for the selectivity of AC1903 are available in the public domain, we decided to profile AC1903 against a selection of calcium-permeable cation channels by intracellular calcium ([Ca^2+]i) recordings using well-characterized cell lines and TRP channel activators ([46], [57], [58]), and the Ca^2+ indicator Fura-2. In these assays, cells (HEK 293, HEK T-REx, or CHO) overexpressing the relevant ion channel protein and loaded with Fura-2 AM (a cell-permeable precursor of Fura-2) were preincubated with various concentrations of AC1903 or vehicle (DMSO) for 30 min. Then, changes in ratiometric fluorescence (from background) were recorded upon addition of the respective ion channel activator.
# HEK T-REx cells expressing tetracycline-inducible TRPC4, TRPC5, TRPC5–C1,TRPC4–C1, and hPiezo1 have been described previously ([46], [57], [59], [78]). […]
# [2] = test system: TRPC3, TRPC4, TRPC5, TRPC6, TRPC4–C1, TRPC5–C1, endogenous TRPC1:C4 channels; assay: Summary of TRPC channel inhibition by AC1903; format: cell-based; settings: TRPC3, TRPC4, TRPC5, TRPC6, TRPC4–C1, TRPC5–C1, endogenous TRPC1:C4 in A498; read-out: IC50 values over multiple TRPC channels
# Description: Nonsense mutations, which occur in ∼11% of patients with genetic disorders, introduce premature termination codons (PTCs) that lead to truncated proteins and promote nonsense-mediated mRNA decay. Aminoglycosides such as G418 permit PTC readthrough and so may be used to address this problem. However, their effects are variable between patients, making clinical use of aminoglycosides challenging. In this study, we tested whether TRPC nonselective cation channels contribute to the variable PTC readthrough effect of aminoglycosides by controlling their cellular uptake. […] In addition, our data strengthen the hypothesis that nonselective calcium channels are involved in aminoglycoside uptake.
# [Ca^2+]i recordings were carried out using the ratiometric Ca^2+ dye Fura-2. 24 h prior to experiments, cells were plated either onto black, clear bottom poly-D-lysine-coated 96-well plates (HEK cells) or clear 96-well plates (A498 cells, CHO cells) at 50,000 cells per well (HEK cells) or 20,000 cells per well (A498 cells, CHO cells). For tetracycline-inducible HEK T-REx cells, protein expression was induced with tetracycline (TRPC channels: 1 μg ml^−1; hPiezo1: 100 ng ml^−1) at this point. […]
smiles,measurement,setting,value
c1ccc(Cn2c(NCc3ccco3)nc3ccccc32)cc1 [AC1903],IC50,[1],3 µM
same,IC50,[2],1.8 to 18 µM
